Assay results from patent US20260294769A1, “ASCORBIC ACID DERIVATIVES AND COSMETIC THEREOF” (SEIWA KASEI COMPANY, LIMITED, priority 2023, published 2026).
Like-named read-outs stand apart in the source and are kept apart here.

Tests used:
[1] = test system: Normal human dermal fibroblasts (NHDF); assay: Hyaluronic acid production promoting effect (ELISA of hyaluronic acid in supernatant); type: cell-based; settings: 10 mM or less, 48 hours, control group set to 100%, N=3
Procedure: Normal human dermal fibroblasts (NHDF) were prepared in D-MEM containing 5% (v/v) fetal bovine serum to a cell density of 2.5×10^4 cells/well, and then pre-incubated on a 96-well plate for 24 hours. After removing the medium, samples prepared in serum-free D-MEM were added to each well and cultured for 48 hours. After the culture was completed, the amount of hyaluronic acid in the supernatant was quantified by ELISA. Measurements were performed in triplicate (N=3).
The amount of hyaluronic acid produced when the sample was measured at a concentration of 10 mM or less was compared with that of the control group, and the results (% values when the control group is set to 100%) are shown in Tables 18 to 20 based on the following criteria.

[2] = Stability Test-2: residual rate in cream of pH 7 or 9 stored at 50° C.; type: physicochemical
Procedure: (§1) For each of the samples of Synthesis Examples 9 to 32, (a) and (b) shown in Table 12 were each heated and mixed. After cooling, (c) shown in Table 12 was added to prepare a cream with a pH of 7 or 9. […] The odor and coloration were also evaluated according to the same method and criteria as in Test Example 1. The results regarding the residual rate are shown in Tables 13 and 14, and the results regarding the odor and coloration are shown in Tables 15 and 16.

[3] = Stability Test-2: odor of cream stored at 50° C.; type: physicochemical; settings: 10 panelists
From the text: • Evaluation was made by 10 panelists according to the following criteria. • 3: Almost odorless. • 2: There is a slight strange odor. • 1: A strong odor is detected. • Based on the results of the above evaluation, the following classification was made: • ◯: Total score of 10 panelists is 25 or more • Δ: Total score of 10 panelists is 16-24 • x: The total score of 10 panelists is 15 or less
as §1

[4] = Stability Test-2: coloration of cream stored at 50° C.; type: physicochemical; settings: 10 panelists
From the text: • Evaluation was made by 10 panelists according to the following criteria. • 3: Almost no change compared to immediately after preparation. • 2: Color changes compared to immediately after preparation. • 1: Strongly colored compared to immediately after preparation. • Based on the results of the above evaluation, the following classification was made:
as §1

[5] = Stability Test-1: residual rate of 1% aqueous solutions stored at 50° C. (HPLC); type: physicochemical; settings: water, 1% aqueous solution; for remaining at 336 h: after 2 weeks, read-out: Residual Rate; for remaining at 672 h: after 4 weeks
Procedure: For each of the samples of Synthesis Examples 1 to 6, 1% aqueous solutions were adjusted to pH 3, 5, 7, 8, and 9 with a dilute potassium hydroxide aqueous solution, and then placed in 50 mL screw tubes and sealed. […] Furthermore, the odor and coloration of the samples adjusted to pH 7 were evaluated based on the following methods and criteria, and the results are shown in Table 11.
• ⊚: 80% or more • ◯: 50% or more, less than 80% • Δ: 30% or more, less than 50% • x: Less than 30%

[6] = cream pH 7, 50° C., after 2 weeks, 20160 min
[7] = cream pH 7, 50° C., after 4 weeks, 40320 min
[8] = cream pH 9, 50° C., after 2 weeks, 20160 min
[9] = cream pH 9, 50° C., after 4 weeks, 40320 min

With `CCCCCCCCCCCCCCCC(=O)OC[C@H](O)[C@H]1OC(=O)C(OP(=O)(O)O)=C1O` [Ascorbyl phosphate 3Na palmitate, reference compound] the “Hyaluronic acid production-promoting effect” value [1] was “± (<100%)”.

In the case of `CCCCCCCCC(CCCCCC)C(=O)OC[C@H](OC(=O)C(CCCCCC)CCCCCCCC)[C@H]1OC(=O)C(OC(=O)C(CCCCCC)CCCCCCCC)=C1OC(=O)C(CCCCCC)CCCCCCCC` (stereo partly shown) [Ascorbyl tetrahexyldecanoate, reference compound], the “Residual Rate” value [2, 6] is reported as “∘ (85% or more, less than 95%)”, the “Residual Rate” value [2, 7] is reported as “x (Less than 85%)” and the “Residual Rate” value [2, 8] is reported as “∘ (85% or more, less than 95%)”. The “Residual Rate” value [2, 9] was “x (Less than 85%)”, the Odor ([3]; after 2 weeks) was “◯ (Total score of 10 panelists is 25 or more)” and the Odor ([3]; after 4 weeks) was “Δ (Total score of 10 panelists is 16-24)”. For the same compound, the Coloration ([4]; after 2 weeks) was “◯ (Total score of 10 panelists is 25 or more)” and the Coloration ([4]; after 4 weeks) was “Δ (Total score of 10 panelists is 16-24)”.

In the case of `O=C1O[C@H]([C@@H](O)CO)C(OCC(O)CO)=C1OCC(O)CO` (stereo partly shown) [Bisglyceryl ascorbic acid, reference compound], the remaining at 336 h ([5]; pH 3, 50° C.) is reported as at least 80%, the remaining at 672 h ([5]; pH 3, 50° C.) is reported as at least 80% and the remaining at 336 h ([5]; pH 5, 50° C.) is reported as at least 80%. It also gave a remaining at 672 h ([5]; pH 5, 50° C.) of at least 80%, a remaining at 336 h ([5]; pH 7, 50° C.) of under 30% and a remaining at 672 h ([5]; pH 7, 50° C.) of under 30%. It also gave a remaining at 336 h ([5]; pH 8, 50° C.) of under 30%, a remaining at 672 h ([5]; pH 8, 50° C.) of under 30% and a remaining at 336 h ([5]; pH 9, 50° C.) of under 30%. The remaining at 672 h ([5]; pH 9, 50° C.) was under 30%.

In the case of `CCCC(=O)OCC(O)C1OC(=O)C2=C1OCCCCO2` (stereo not shown) [Synthesis Example 9, 6-O-butanoyl-2,3-O-(1,4-butanediyl) ascorbic acid], the “Residual Rate” value [2, 6] is reported as “⊚ (95% or more)”, the “Residual Rate” value [2, 7] is reported as “⊚ (95% or more)” and the “Residual Rate” value [2, 8] is reported as “⊚ (95% or more)”. The “Residual Rate” value [2, 9] was “⊚ (95% or more)”, the Odor ([3]; after 2 weeks) was “◯ (Total score of 10 panelists is 25 or more)” and the Odor ([3]; after 4 weeks) was “Δ (Total score of 10 panelists is 16-24)”. For the same compound, the Coloration ([4]; after 2 weeks) was “◯ (Total score of 10 panelists is 25 or more)”, the Coloration ([4]; after 4 weeks) was “◯ (Total score of 10 panelists is 25 or more)” and the “Hyaluronic acid production-promoting effect” value [1] was “++ (120%<)”.

With `CCCCCCCC(=O)OCC(O)C1OC(=O)C2=C1OCCCCO2` (stereo not shown) [Synthesis Example 11, 6-O-octanoyl-2,3-O-(1,4-butanediyl) ascorbic acid] the “Residual Rate” value [2, 6] was “⊚ (95% or more)”, the “Residual Rate” value [2, 7] was “⊚ (95% or more)” and the “Residual Rate” value [2, 8] was “⊚ (95% or more)”. The “Residual Rate” value [2, 9] was “∘ (85% or more, less than 95%)”, the Odor ([3]; after 2 weeks) was “◯ (Total score of 10 panelists is 25 or more)” and the Odor ([3]; after 4 weeks) was “Δ (Total score of 10 panelists is 16-24)”. For the same compound, the Coloration ([4]; after 2 weeks) was “◯ (Total score of 10 panelists is 25 or more)”, the Coloration ([4]; after 4 weeks) was “◯ (Total score of 10 panelists is 25 or more)” and the “Hyaluronic acid production-promoting effect” value [1] was “++ (120%<)”.

With `CCCCCCCCCCCCCCCC(=O)OCC(OC(=O)CCCCCCCCCCCCCCC)C1OC(=O)C2=C1OCCCCO2` (stereo not shown) [Synthesis Example 16, 5,6-O-dipalmitoyl-2,3-O-(1,4-butanediyl) ascorbic acid] the “Residual Rate” value [2, 6] was “⊚ (95% or more)”, the “Residual Rate” value [2, 7] was “⊚ (95% or more)” and the “Residual Rate” value [2, 8] was “⊚ (95% or more)”. The “Residual Rate” value [2, 9] was “⊚ (95% or more)”, the Odor ([3]; after 2 weeks) was “◯ (Total score of 10 panelists is 25 or more)” and the Odor ([3]; after 4 weeks) was “Δ (Total score of 10 panelists is 16-24)”. The Coloration ([4]; after 2 weeks) was “◯ (Total score of 10 panelists is 25 or more)”, the Coloration ([4]; after 4 weeks) was “◯ (Total score of 10 panelists is 25 or more)” and the “Hyaluronic acid production-promoting effect” value [1] was “++ (120%<)”.

With `CC(C)CCCCCCCCCCCCCCC(=O)OC[C@H](OC(=O)CCCCCCCCCCCCCCC(C)C)[C@H]1OC(=O)C2=C1OCCCCO2` [Synthesis Example 18, 5,6-O-diisostearoyl-2,3-O-(1,4-butanediyl) ascorbic acid] the “Residual Rate” value [2, 6] was “⊚ (95% or more)”, the “Residual Rate” value [2, 7] was “⊚ (95% or more)” and the “Residual Rate” value [2, 8] was “⊚ (95% or more)”. For the same compound, the “Residual Rate” value [2, 9] was “⊚ (95% or more)”, the Odor ([3]; after 2 weeks) was “◯ (Total score of 10 panelists is 25 or more)” and the Odor ([3]; after 4 weeks) was “Δ (Total score of 10 panelists is 16-24)”. The Coloration ([4]; after 2 weeks) was “◯ (Total score of 10 panelists is 25 or more)”, the Coloration ([4]; after 4 weeks) was “◯ (Total score of 10 panelists is 25 or more)” and the “Hyaluronic acid production-promoting effect” value [1] was “++ (120%<)”.

With `CCCCCCCC(=O)OC[C@H](OC(=O)CCC)[C@H]1OC(=O)C2=C1OCCCCO2` [Synthesis Example 19, 5-O-butanoyl-6-O-octanoyl-2,3-O-(1,4-butanediyl) ascorbic acid] the “Residual Rate” value [2, 6] was “⊚ (95% or more)”, the “Residual Rate” value [2, 7] was “⊚ (95% or more)” and the “Residual Rate” value [2, 8] was “⊚ (95% or more)”. For the same compound, the “Residual Rate” value [2, 9] was “⊚ (95% or more)”, the Odor ([3]; after 2 weeks) was “◯ (Total score of 10 panelists is 25 or more)” and the Odor ([3]; after 4 weeks) was “Δ (Total score of 10 panelists is 16-24)”. The Coloration ([4]; after 2 weeks) was “◯ (Total score of 10 panelists is 25 or more)” and the Coloration ([4]; after 4 weeks) was “◯ (Total score of 10 panelists is 25 or more)”.

With `CCCC(=O)OCC(O)C1OC(=O)C2=C1OCCCO2` (stereo not shown) [Synthesis Example 20, 6-O-butanoyl-2,3-O-(1,3-propanediyl) ascorbic acid] the “Residual Rate” value [2, 6] was “⊚ (95% or more)”, the “Residual Rate” value [2, 7] was “⊚ (95% or more)” and the “Residual Rate” value [2, 8] was “⊚ (95% or more)”. For the same compound, the “Residual Rate” value [2, 9] was “⊚ (95% or more)”, the Odor ([3]; after 2 weeks) was “◯ (Total score of 10 panelists is 25 or more)” and the Odor ([3]; after 4 weeks) was “Δ (Total score of 10 panelists is 16-24)”. The Coloration ([4]; after 2 weeks) was “◯ (Total score of 10 panelists is 25 or more)”, the Coloration ([4]; after 4 weeks) was “◯ (Total score of 10 panelists is 25 or more)” and the “Hyaluronic acid production-promoting effect” value [1] was “++ (120%<)”.

With `CCCCCCCCCCCCCCCC(=O)OCC(OC(=O)CCC)C1OC(=O)C2=C1OCCCO2` (stereo not shown) [Synthesis Example 30, 5-O-butanoyl-6-O-palmitoyl-2,3-O-(1,3-propanediyl) ascorbic acid] the “Residual Rate” value [2, 6] was “⊚ (95% or more)”, the “Residual Rate” value [2, 7] was “⊚ (95% or more)” and the “Residual Rate” value [2, 8] was “⊚ (95% or more)”. The “Residual Rate” value [2, 9] was “⊚ (95% or more)”, the Odor ([3]; after 2 weeks) was “◯ (Total score of 10 panelists is 25 or more)” and the Odor ([3]; after 4 weeks) was “Δ (Total score of 10 panelists is 16-24)”. For the same compound, the Coloration ([4]; after 2 weeks) was “◯ (Total score of 10 panelists is 25 or more)” and the Coloration ([4]; after 4 weeks) was “◯ (Total score of 10 panelists is 25 or more)”.

For `CC(C)CCCCCCCCCCCCCCC(=O)OCC(OC(=O)CCCCCCCCCCCCCCC(C)C)C1OC(=O)C2=C1OCCO2` (stereo not shown) [Synthesis Example 32, 5,6-O-diisostearoyl-2,3-O-(1,2-ethanediyl) ascorbic acid], the “Residual Rate” value [2, 6] was “⊚ (95% or more)”, the “Residual Rate” value [2, 7] was “⊚ (95% or more)” and the “Residual Rate” value [2, 8] was “⊚ (95% or more)”. The “Residual Rate” value [2, 9] was “⊚ (95% or more)”, the Odor ([3]; after 2 weeks) was “◯ (Total score of 10 panelists is 25 or more)” and the Odor ([3]; after 4 weeks) was “Δ (Total score of 10 panelists is 16-24)”. The Coloration ([4]; after 2 weeks) was “◯ (Total score of 10 panelists is 25 or more)” and the Coloration ([4]; after 4 weeks) was “◯ (Total score of 10 panelists is 25 or more)”.

With `CC1(C)OCC(C2OC(=O)C3=C2OCCCCO3)O1` (stereo not shown) [Synthesis Example 35, 5,6-O-isopropylidene-2,3-O-(1,4-butanediyl) ascorbic acid] the “Hyaluronic acid production-promoting effect” value [1] was “++ (120%<)”.

In the case of `CC1(C)OCC(C2OC(=O)C3=C2OCCCO3)O1` (stereo not shown) [Synthesis Example 36, 5,6-O-isopropylidene-2,3-O-(1,3-propanediyl) ascorbic acid], the “Hyaluronic acid production-promoting effect” value [1] is reported as “++ (120%<)”.

For `O=C1OC(C2COC(c3ccccc3)O2)C2=C1OCCCO2` (stereo not shown) [Synthesis Example 38, 5,6-O-(phenylmethylene)-2,3-O-(1,3-propanediyl) ascorbic acid], the “Hyaluronic acid production-promoting effect” value [1] was “++ (120%<)”.
